Data taken from US10525046B2 (ACADIA Pharmaceuticals Inc., priority 2003, dated 2020).
Each block holds one compound with its values, some of them ahead of it.

How the values were obtained:
human D2 receptors [1] = target: T1, human D2 receptors (Homo sapiens, UniProt P14416); test: cell-based
[2] = refractory schizophrenic patients; cited from earlier work
human 5HT2A receptors = human 5HT2A receptors (Homo sapiens, UniProt P28223)
human D2 receptors [3] = target: T1, human D2 receptors; details: R-SAT agonist; short form of the D2 receptor; +/− standard deviation of three to eight determinations
[4] = system: hyperactivity induced by MK-801 (dizocilpine); test: MK-801 induced hyperactivity; format: in vivo, rats
Excerpt: (§1) . In FIG. 2A and 2B, asterisks indicate statistical significance (p<0.05) compared to respective vehicle control. […]

spontaneous locomotion = test: Spontaneous locomotion; format: in vivo; details: s.c.; rats (FIG. 2A)
Excerpt: as §1

[5] = system: levodopa-associated dyskinesias and motor response fluctuations; test: Double blind, placebo controlled study in parkinsonian patients; format: in vivo; details: Patient Group II
Description: […]. […] […]. The compound of formula (I) is administered once daily for four weeks, with the dose escalating once each week. Assessments are made on the first day of each dose escalation.
The study is conducted on an […].
Patients who participate in the study have particular characteristics. The patients are between 30 and 80 years of age, inclusively. The patients had been diagnosed with idiopathic Parkinson's disease based on the presence of a characteristic clinical history and neurological findings.
The sample size is calculated for the primary endpoint: the Unified Parkinson's Disease Rating Scale (UPDRS) part III motor examination. […]. […] In this phase 2 study we will accept a two-sided alpha at a 0.05 significance level. Four patients will be added for the placebo group, totaling 21 subjects enrolled in the study.
Patients enter the levodopa infusion optimal rate determination (dose finding) portion of the study as soon as all prohibited medication has been withdrawn for at least four weeks.
Intravenous infusion of levodopa is conducted in an in-patient ward. […]. During the first and second days of optimal rate determination, two baseline UPDRS ratings are performed prior to levodopa infusion. […] Dyskinesia severity is similar to that experienced with each patient's usual therapeutic regimen. Levodopa will be administered by means of an indwelling intravenous catheter. The initial infusion rate of levodopa will not exceed 80 mg/hr.
Levodopa infusions will ordinarily last up to 8 hours, but may be continued uninterrupted for several days or be repeated on other days to obtain reliable assessment of motor function. The peripheral decarboxylase inhibitor carbidopa (50 mg, given every 3 hours) is administered orally starting at least one hour prior to intravenous administration of levodopa and continuing until levodopa effects have worn off. […]
Throughout the study, patients are evaluated weekly for drug safety and tolerability during their inpatient admission and two weeks after treatment for an outpatient follow-up visit. […]

[6] = system: hyperactivity induced by d-amphetamine; test: Amphetamine induced hyperactivity; format: in vivo; details: mice
[7] = system: remaining monoaminergic receptor subtypes; test: Intrinsic activity at remaining monoaminergic receptor subtypes
[8] = system: L-dopa induced dyskinesias; test: L-dopa induced dyskinesia in MPTP monkeys; details: s.c.; MPTP dyskinetic primates; dyskinetic movements scored as percentage of placebo (FIG. 3)

T1 sequence (P14416 1-414 isoform P14416-2): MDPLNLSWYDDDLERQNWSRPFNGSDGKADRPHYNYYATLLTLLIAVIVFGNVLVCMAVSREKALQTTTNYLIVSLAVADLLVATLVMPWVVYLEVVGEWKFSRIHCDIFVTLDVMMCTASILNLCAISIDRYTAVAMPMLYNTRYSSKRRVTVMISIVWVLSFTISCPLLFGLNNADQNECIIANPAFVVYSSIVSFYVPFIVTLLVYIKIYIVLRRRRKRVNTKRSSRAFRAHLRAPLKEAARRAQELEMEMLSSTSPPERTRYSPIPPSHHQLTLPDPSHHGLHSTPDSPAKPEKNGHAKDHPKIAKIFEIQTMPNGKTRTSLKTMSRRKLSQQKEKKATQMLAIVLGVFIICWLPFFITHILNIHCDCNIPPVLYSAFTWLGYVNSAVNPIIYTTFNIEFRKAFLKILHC
Chain of human 5HT2A receptors (P28223 whole entry): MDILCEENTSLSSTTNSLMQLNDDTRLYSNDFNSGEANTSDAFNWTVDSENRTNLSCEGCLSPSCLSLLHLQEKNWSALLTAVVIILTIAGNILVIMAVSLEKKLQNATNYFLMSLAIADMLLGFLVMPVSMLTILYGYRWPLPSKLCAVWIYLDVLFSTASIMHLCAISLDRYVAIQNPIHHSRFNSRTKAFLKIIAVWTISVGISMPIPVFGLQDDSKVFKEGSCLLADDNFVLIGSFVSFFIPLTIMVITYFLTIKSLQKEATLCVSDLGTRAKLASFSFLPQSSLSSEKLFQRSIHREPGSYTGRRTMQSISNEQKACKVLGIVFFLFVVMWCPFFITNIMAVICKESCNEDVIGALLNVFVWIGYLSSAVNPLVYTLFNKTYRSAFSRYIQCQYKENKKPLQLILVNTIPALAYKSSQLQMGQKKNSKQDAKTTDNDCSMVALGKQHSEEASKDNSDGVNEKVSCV

SMILES: CC(C)C[C@H]1C(=O)N2CCC[C@H]2[C@]2(O)O[C@](NC(=O)[C@@H]3C=C4c5cccc6[nH]c(Br)c(c56)C[C@H]4N(C)C3)(C(C)C)C(=O)N12 [Bromocriptine]
EC50 (human D2 receptors [1]): 0.43 nM

SMILES: CN1CCN(C2=Nc3cc(Cl)ccc3Nc3ccccc32)CC1 [Clozapine]
average serum levels associated with therapeutic response [2]: ≥ 250 ng/mL

Potency against serotonin 5-HT2A receptor (FIG. 1B) (human 5HT2A receptors; R-SAT agonist, reference full agonist serotonin): no response
SMILES: NCCc1ccc(O)c(O)c1 [Dopamine]

SMILES: CCCN(CCC)CCc1cccc2c1CC(=O)N2 [Ropinirole]
Dopamine D2, —Log (EC50) (human D2 receptors [3]): 8.19 +/− 0.58 | Serotonin 2A, —Log (EC50) (human 5HT2A receptors): 6.85 +/− 0.77

SMILES: CC(C)COc1ccc(CNC(=O)N(Cc2ccc(F)cc2)C2CCN(C)CC2)cc1 [compound of formula (I), N-(1-methylpiperidin-4-yl)-N-(4-flourophenylmethyl)-N′-(4-(2-methylpropyloxy)phenylmethyl)carbamide]
effect on MK-801 hyperactivity ([4]; i.p. administration, 1 mg/kg): attenuated MK-801 hyperactivity | minimum effective dose attenuating MK-801 hyperactivity ([4]; p.o., rats (FIG. 2B)): 10 mg/kg | minimum effective dose attenuating MK-801 hyperactivity ([4]; s.c., rats (FIG. 2A)): 1 mg/kg | doses reducing spontaneous locomotion (spontaneous locomotion): ≥ 3 mg/kg | effect on the beneficial effects of levodopa on parkinsonian symptoms ([5]; oral): potentiates the benefical effects of levodopa on parkinsonian symptoms | levodopa-associated dyskinesias and motor response fluctuations ([5]; oral once daily, 30 to 300 mg escalating weekly): show a reducing in levodopa-associated dyskinesias and motor response fluctuations | tolerability ([5]; oral, 30 to 300 mg): tolerate the compound of formula (I) at all doses administered | effect on amphetamine hyperactivity, administered alone ([6]; 10.0 mg/kg P.O. and below, 3.0 mg/kg I.P. d-amphetamine): did not reduce hyperactivity | amphetamine hyperactivity with the combination ([6]; 10.0 mg/kg P.O. compound of formula (I) combined with s.c. haloperidol): completely reversed | intrinsic activity at remaining monoaminergic receptor subtypes [7]: lacks intrinsic activity | effect on L-dopa induced dyskinesias [8]: significantly diminish L-dopa induced dyskinesias in a dose dependent manner

SMILES: O=C(CCCN1CCC(O)(c2ccc(Cl)cc2)CC1)c1ccc(F)cc1 [haloperidol, reference compound]
minimally significant dose reducing amphetamine hyperactivity, in combination ([6]; haloperidol s.c. with 10.0 mg/kg P.O. compound of formula (I)): 0.03 mg/kg | minimally significant dose reducing amphetamine hyperactivity, alone ([6]; s.c., 3.0 mg/kg I.P. d-amphetamine): 0.1 mg/kg
